Reference: patent publication US20220105150A1, “AMPHIPATHIC ALPHA-HELICAL ANTIMICROBIAL PEPTIDES TREAT INFECTIONS BY GRAM-NEGATIVE PATHOGENS” (priority 2019, published 2022)
In brackets after ≈: the same amount, converted by molar mass.

Legend:
A. baumannii strain 649 = type: cell-based, Acinetobacter baumannii; settings: for fold loss of antimicrobial activity in 25% human sera: 25% human sera versus no serum; for MIC 25% human serum: MH medium supplemented with 25% (v/v) human sera; for MIC No serum: MH medium
Description: Hemoglobin release was determined spectrophotometrically at 570 nm.
Because only unbound AMP is available to interact with the therapeutic target, the extent of binding between AMPs and serum proteins can have significant effects on efficacy of these drugs. […] This assay estimates the in vivo bioavailability of our AMPs. […] An increase in MIC in the presence of serum is attributed to inhibition of antimicrobial activity due to binding to serum proteins.

[1] = tested on: Acinetobacter baumannii isolates resistant to classical antibiotics; type: cell-based; settings: for MICGM: geometric mean over 20 strains; for MIC 101887: strain 101887 (lower line); for MIC 961997: strain 961997 (lower line); for MIC 963618: strain 963618 (lower line); for MIC 964304: strain 964304 (lower line); for MIC 977751: strain 977751 (lower line); for MIC 981653: strain 981653 (lower line); for MIC 1002956: strain 1002956 (lower line); for MIC 1007660: strain 1007660 (lower line); for MIC 1010282: strain 1010282 (lower line); for MIC 1035166: strain 1035166 (lower line)
Source text: Thus, shortening the number of carbon atoms between the side-chain amino group and the α-carbon atom from four (Lys) to one (diaminopropionic acid) had very little effect on antibacterial activity (Table 2). We also determined the antibacterial activity of our five AMPs against 20 additional Acinetobacter baumannii isolates from four continents, 12 different countries and 17 different cities that were resistant to 18 different antibiotics. […] Thus, it is very clear that changing the type of positively-charged residue on the polar face of these AMPs had very little effect on the antibacterial activities.

[2] = tested on: Acinetobacter baumannii strains resistant to Polymyxin B and Colistin; settings: for MICGM: geometric mean of MIC values from seven strains resistant to Polymyxin B and Colistin; for MIC MB9941: strain MB9941; for MIC MB9941 / MIC MB9949 / MIC MB9951 / MIC MB9952 / MIC MB9953 / MIC MB9955 / MIC MB9963: Mueller-Hinton medium, 37° C., 24 h; for MIC MB9949: strain MB9949; for MIC MB9951: strain MB9951; for MIC MB9952: strain MB9952; for MIC MB9953: strain MB9953; for MIC MB9955: strain MB9955; for MIC MB9963: strain MB9963

CC(=O)N[C@H](CCCCN)C(=O)N[C@H](CC(C)C)C(=O)N[C@H](CCN)C(=O)N[C@H](CO)C(=O)N[C@H](CC(C)C)C(=O)N[C@H](CC(C)C)C(=O)N[C@H](CCN)C(=O)N[C@@H](C(=O)N[C@H](CC(C)C)C(=O)N[C@H](CO)C(=O)N[C@H](CCN)C(=O)N[C@H](C)C(=O)N[C@H](C)C(=O)N[C@H](C)C(=O)N[C@H](C)C(=O)N[C@H](C)C(=O)N[C@H](CC(C)C)C(=O)N[C@H](CCN)C(=O)N[C@@H](C(=O)N[C@H](CC(C)C)C(=O)N[C@H](CC(C)C)C(=O)N[C@H](CCN)C(=O)N[C@H](C)C(=O)N[C@H](CC(C)C)C(=O)N[C@H](CO)C(=O)N[C@H](CCN)C(N)=O)[C@H](C)O)[C@H](C)O [D86(K13A/K16A)-(Lys^1-6Dab-1), Ac-KL(Dab)SLL(Dab)TLS(Dab)AAAAAL(Dab)TLL(Dab)ALS(Dab)-amide]
fold loss of antimicrobial activity in 25% human sera (A. baumannii strain 649): 4 fold
MIC 25% human serum (A. baumannii strain 649): 3.0 µM (≈ 7.75 µg/mL)
MIC No serum (A. baumannii strain 649): 0.8 µM (≈ 2.07 µg/mL)
MICGM [1]: 0.9 µM
MIC 101887 [1]: 0.5 µM (≈ 1.29 µg/mL)
MIC 961997 [1]: 0.8 µM (≈ 2.07 µg/mL)
MIC 963618 [1]: 0.8 µM (≈ 2.07 µg/mL)
MIC 964304 [1]: 1.5 µM (≈ 3.87 µg/mL)
MIC 977751 [1]: 3.1 µM (≈ 8.01 µg/mL)
MIC 981653 [1]: 0.4 µM (≈ 1.03 µg/mL)
MIC 1002956 [1]: 0.8 µM (≈ 2.07 µg/mL)
MIC 1007660 [1]: 0.8 µM (≈ 2.07 µg/mL)
MIC 1010282 [1]: 0.8 µM (≈ 2.07 µg/mL)
MIC 1035166 [1]: 0.8 µM (≈ 2.07 µg/mL)
MICGM [2]: 0.9 µM
MIC MB9941 [2]: 1.5 µM (≈ 3.87 µg/mL)
MIC MB9949 [2]: 0.8 µM (≈ 2.07 µg/mL)
MIC MB9951 [2]: 0.8 µM (≈ 2.07 µg/mL)
MIC MB9952 [2]: 0.8 µM (≈ 2.07 µg/mL)
MIC MB9953 [2]: 0.8 µM (≈ 2.07 µg/mL)
MIC MB9955 [2]: 0.8 µM (≈ 2.07 µg/mL)
MIC MB9963 [2]: 0.8 µM (≈ 2.07 µg/mL)

CC(=O)N[C@H](CCCCN)C(=O)N[C@H](CC(C)C)C(=O)N[C@H](CN)C(=O)N[C@H](CO)C(=O)N[C@H](CC(C)C)C(=O)N[C@H](CC(C)C)C(=O)N[C@H](CN)C(=O)N[C@@H](C(=O)N[C@H](CC(C)C)C(=O)N[C@H](CO)C(=O)N[C@H](CN)C(=O)N[C@H](C)C(=O)N[C@H](C)C(=O)N[C@H](C)C(=O)N[C@H](C)C(=O)N[C@H](C)C(=O)N[C@H](CC(C)C)C(=O)N[C@H](CN)C(=O)N[C@@H](C(=O)N[C@H](CC(C)C)C(=O)N[C@H](CC(C)C)C(=O)N[C@H](CN)C(=O)N[C@H](C)C(=O)N[C@H](CC(C)C)C(=O)N[C@H](CO)C(=O)N[C@H](CN)C(N)=O)[C@H](C)O)[C@H](C)O [D105(K13A/K16A)-(Lys^1-6Dap-1), Ac-KL(Dap)SLL(Dap)TLS(Dap)AAAAAL(Dap)TLL(Dap)ALS(Dap)-amide]
fold loss of antimicrobial activity in 25% human sera (A. baumannii strain 649): 15 fold
MIC 25% human serum (A. baumannii strain 649): 12.5 µM (≈ 31.2 µg/mL)
MIC No serum (A. baumannii strain 649): 0.8 µM (≈ 2 µg/mL)
MICGM [1]: 2.0 µM
MIC 101887 [1]: 3.2 µM (≈ 8 µg/mL)
MIC 961997 [1]: 3.2 µM (≈ 8 µg/mL)
MIC 963618 [1]: 1.6 µM (≈ 4 µg/mL)
MIC 964304 [1]: 3.2 µM (≈ 8 µg/mL)
MIC 977751 [1]: 0.8 µM (≈ 2 µg/mL)
MIC 981653 [1]: 1.6 µM (≈ 4 µg/mL)
MIC 1002956 [1]: 1.6 µM (≈ 4 µg/mL)
MIC 1007660 [1]: 3.2 µM (≈ 8 µg/mL)
MIC 1010282 [1]: 1.6 µM (≈ 4 µg/mL)
MIC 1035166 [1]: 3.2 µM (≈ 8 µg/mL)
MICGM [2]: 1.3 µM
MIC MB9941 [2]: 1.6 µM (≈ 4 µg/mL)
MIC MB9949 [2]: 0.8 µM (≈ 2 µg/mL)
MIC MB9951 [2]: 0.8 µM (≈ 2 µg/mL)
MIC MB9952 [2]: 1.6 µM (≈ 4 µg/mL)
MIC MB9953 [2]: 1.6 µM (≈ 4 µg/mL)
MIC MB9955 [2]: 1.6 µM (≈ 4 µg/mL)
MIC MB9963 [2]: 1.6 µM (≈ 4 µg/mL)
